Article PMC6264874, “A single class of ARF GTPase activated by several pathway-specific ARF-GEFs regulates essential membrane traffic in Arabidopsis” (PLoS Genetics, 2018)

What was measured:
[1] = molecular target: T1, ARF1 (ARFA1c), residues 18-181 (Arabidopsis thaliana, UniProt P36397); experiment: tryptophan fluorescence nucleotide exchange (ex […] nm, em […] nm); type: binding; settings: 1 uM GDP-loaded ARF, 66 uM GTPgammaS, 50 nM SEC7 domain of BIG5 (residues 587-791), 10 mM MgCl2, pH 7.5, 37 C
T1 construct: N-terminally truncated (residues 18-181), 6xHis-tagged (pET30a), expressed in E. coli BL21(DE3), Ni-NTA purified
T1 sequence (P36397 18-181): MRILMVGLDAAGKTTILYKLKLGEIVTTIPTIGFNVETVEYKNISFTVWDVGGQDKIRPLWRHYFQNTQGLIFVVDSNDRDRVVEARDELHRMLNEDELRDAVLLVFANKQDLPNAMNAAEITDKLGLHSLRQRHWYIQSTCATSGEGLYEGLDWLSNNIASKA

[2] = molecular target: T2, ARFA (ARFB1b), residues 18-192 (Arabidopsis thaliana, UniProt Q9LFJ7); experiment: as above; type: binding; settings: 1 uM GDP-loaded ARF, 66 uM GTPgammaS, 50 nM SEC7 domain of BIG5 (residues 587-791), 10 mM MgCl2, pH 7.5, 37 C
T2 construct: N-terminally truncated (residues 18-192), 6xHis-tagged (pET30a), expressed in E. coli BL21(DE3), Ni-NTA purified
T2 sequence (Q9LFJ7 18-192): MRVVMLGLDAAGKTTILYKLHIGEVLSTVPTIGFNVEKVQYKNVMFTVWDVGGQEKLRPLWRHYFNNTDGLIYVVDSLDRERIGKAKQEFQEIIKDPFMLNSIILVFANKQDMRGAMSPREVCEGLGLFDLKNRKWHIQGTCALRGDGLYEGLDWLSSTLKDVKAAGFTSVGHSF

Nc1nc2c(ncn2[C@@H]2O[C@H](COP(=O)(O)OP(=O)(O)OP(O)(O)=S)[C@@H](O)[C@H]2O)c(=O)[nH]1 [GTPγS]
tryptophan fluorescence nucleotide exchange (ex 298 nm, em 340 nm) [1]: The SEC7 domain of BIG5 catalyzed GDP-GTP exchange on ARF1(wt), ARFA(wt) and ARFA-Q71L | tryptophan fluorescence nucleotide exchange (ex 298 nm, em 340 nm) [2]: The SEC7 domain of BIG5 catalyzed GDP-GTP exchange on ARF1(wt), ARFA(wt) and ARFA-Q71L
